Reference: patent US6583299B1, “α-amino-β-sulfonyl hydroxamic acid compounds” (priority 1999, dated 2003)

Columns and labels:
MMP-13 = biological target: T1, MMP-13 (Homo sapiens, UniProt P45452); assay: In vitro metalloprotease inhibition, fluorogenic MCA peptide substrate; type: biochemical; conditions: recombinant human enzyme, APMA-activated, room temperature, pH 7.5; read-out: MMP-13 IC50
T1 construct: made in house; host or cells: baculovirus / insect cells

MMP-1 = biological target: T2, MMP-1 (Homo sapiens, UniProt P03956); assay: as above; type: biochemical; conditions: recombinant human enzyme, APMA-activated, room temperature, pH 7.5
T2 construct: host or cells: transfected HT-1080 cells
T2 sequence (P03956 100-469): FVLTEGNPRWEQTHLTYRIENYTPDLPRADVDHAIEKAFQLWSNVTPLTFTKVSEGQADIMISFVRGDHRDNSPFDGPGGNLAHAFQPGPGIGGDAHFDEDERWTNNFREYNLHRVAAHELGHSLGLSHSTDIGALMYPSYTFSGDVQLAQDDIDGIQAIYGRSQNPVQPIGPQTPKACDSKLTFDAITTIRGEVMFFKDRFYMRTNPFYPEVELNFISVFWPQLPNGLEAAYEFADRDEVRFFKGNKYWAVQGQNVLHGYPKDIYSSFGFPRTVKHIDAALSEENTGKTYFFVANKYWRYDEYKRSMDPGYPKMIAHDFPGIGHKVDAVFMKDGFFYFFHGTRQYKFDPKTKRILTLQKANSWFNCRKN

[1] = system: human moncytic line U-937; assay: Tumor necrosis factor assay: PMA-stimulated TNF release, TNFα ELISA; type: cell-based; conditions: U-937 cells; for inhibition at 10 µM: compound at 10 μM, read-out: Per Cent Inhibition of TNF? Release [average]
Procedure: The cells used in the assay are the human moncytic line U-937 (ATCC CRL-1593). The cells are grown RPMI w/10% FCS and PSG supplement (R-10) and are not permitted to overgrow. The assay is carried out as follows:
1. Count, then harvest cells by centrifugation. Resuspend the pellet in R-10 supplement to a concentration of 1.540×10^6 cells/mL.
2. Add test compound in 65 μL R-10 to the appropriate wells of a 96-well flat bottom tissue culture plate. The initial dilution from a DMSO stock (100 mM compound) provides a 400 μM solution, from which five additional three-fold serial dilutions are made.
3. The counted, washed and resuspended cells (200,000 cells/well) in 130 μL are added to the wells.
4. Incubation is for 45 minutes to one hour at 37° C. in 5% CO2 in a water saturated container.
5. R-10 (65 μL)containing 160 ng/mL PMA (Sigma) is added to each well. 6. The test system is incubated at 37° C. in 5% CO2 overnight (18-20 hours) under 100% humidity.
7. Supernatant, 150 μL, is carefully removed from each well for use in the ELISA assay.
Coat Immulon® 2 plates with 0.1 mL/well of 1 ug/mL Genzyme mAb in 0.1 M NaHCO3 pH 8.0 buffer overnight (about 18-20 hours) at 4° C., wrapped tightly in Saran® wrap.
Wash wells thoroughly 4× with wash buffer and completely remove all wash buffer. Add 0.1 mL/well of either samples or rhTNFα standards. Dilute samples if necessary in appropriate diluent (e.g. tissue culture medium). Dilute standard in same diluent. Standards and samples should be in triplicates.
Wash plates as above. Add 0.1 mL/well of 1:200 dilution of Genzyme rabbit anti-hTNFα.
Repeat wash. Add 0.1 mL/well of 1 μg/mL Jackson goat anti-rabbit IgG (H+L)-peroxidase.
Repeat wash. Add 0.1 mL/well of peroxide-ABTS solution.

[2] = system: solid tumor cancers (colorectal, pancreatic, ovarian, prostate); conditions: cited from earlier work

Row | IC50 (MMP-13) [nM] | IC50 (MMP-1) [nM] | Structure (SMILES) | inhibition at 10 µM [1] [%] | IC50 [1] [nM] | Most common drug-related toxicity ([2]; clinical trials, Phase I/II) | Effect on cancer-specific antigens used as surrogate markers for biological activity ([2]; patients with advanced, rapidly progressive, treatment-refractory solid tumor cancers)
1 | 25 | 2000 | COc1ccc(S(=O)(=O)CC(NC(=O)c2ccccc2)C(=O)NO)cc1 (stereo not shown) [Example 3, N-Hydroxy-3-[(4-methoxyphenyl)sulfonyl]-2-[(phenylcarbonyl)amino]propanamide] | 3.72 |  |  | 
2 | 3.5 | 400 | CCCCC(=O)NC(CS(=O)(=O)c1ccc(OC)cc1)C(=O)NO (stereo not shown) [Example 4, N-Hydroxy-3-[(4-methoxyphenyl)sulfonyl]-2-[(butylcarbonyl)amino]propanamide] | -3.8 | > 50000 |  | 
3 | 200 | 100 | CC(=O)NC(CS(=O)(=O)c1ccc(Br)cc1)C(=O)NO (stereo not shown) [Example 5, N-Hydroxy-3-[(4-bromophenyl)sulfonyl]-2-[(methylcarbonyl)amino]propanamide] | -10.8 | > 50000 |  | 
4 | 2.5 | 200 | COc1ccc(S(=O)(=O)CC(NC(=O)CCC(=O)OCc2ccccc2)C(=O)NO)cc1 (stereo not shown) [Example 7] |  | > 50000 |  | 
5 | 60 | 600 | COc1ccc(S(=O)(=O)CC(NC(=O)CCC(=O)O)C(=O)NO)cc1 (stereo not shown) [Example 8] |  | > 50000 |  | 
6 | 15 | 250 | COc1ccc(S(=O)(=O)CC(N)C(=O)NO)cc1 (stereo not shown) [Example 22] |  | > 29000 |  | 
7 | 1500 | > 10000 | COc1ccc(S(=O)(=O)CC(NC(C)=O)C(=O)NO)cc1OC (stereo not shown) [Example 23] |  | > 50000 |  | 
8 | 650 | 5200 | COc1ccc(S(=O)(=O)CC(NC(C)=O)C(=O)NO)cc1 (stereo not shown) [Example 24] |  | > 50000 |  | 
9 | 1 | 1 | COc1ccc(S(=O)(=O)CC(NC(=O)[C@@H](C)NC(=O)OCc2ccccc2)C(=O)NO)cc1 (stereo partly shown) [Example 25] |  | 14000 |  | 
10 |  |  | CNC(=O)[C@@H](NC(=O)[C@H](CC(C)C)[C@H](O)C(=O)NO)C(C)(C)C [marimastat] |  |  | musculoskeletal pain and stiffness | dose-related reduction in the rise of cancer-specific antigens
